Assay results taken from patent publication US20240252488A1 (KOREA RESEARCH INSTITUTE OF CHEMICAL TECHNOLOGY, priority 2020, published 2024).

Experiments:
MLKL [1] = target: T1, MLKL (Homo sapiens, UniProt Q8NB16); experiment: Measurement of binding affinity with MLKL receptor (competitive binding assay, Kd); design: made in house; host or cells: HEK 293 cell line (T7 phage in E. coli BL21-derived host is also described)
T1 sequence (Q8NB16 1-471): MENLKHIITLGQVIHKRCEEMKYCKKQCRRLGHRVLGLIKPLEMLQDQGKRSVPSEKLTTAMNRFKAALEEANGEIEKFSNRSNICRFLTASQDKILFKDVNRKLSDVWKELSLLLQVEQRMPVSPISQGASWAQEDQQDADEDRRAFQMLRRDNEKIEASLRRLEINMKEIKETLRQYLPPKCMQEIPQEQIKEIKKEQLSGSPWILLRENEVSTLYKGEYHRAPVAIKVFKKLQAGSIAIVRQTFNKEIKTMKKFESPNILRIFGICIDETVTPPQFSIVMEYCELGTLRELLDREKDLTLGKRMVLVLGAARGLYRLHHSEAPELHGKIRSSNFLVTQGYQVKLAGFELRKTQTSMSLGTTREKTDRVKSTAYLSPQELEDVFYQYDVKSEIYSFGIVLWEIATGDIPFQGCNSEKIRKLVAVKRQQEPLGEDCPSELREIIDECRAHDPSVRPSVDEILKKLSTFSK
Method in brief: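 Kd comes from a bead-based competition format: compound-dependent loss of DNA-tagged, HEK 293-expressed MLKL capture, measured as eluate kinase by qPCR. Final DMSO is 0.9%.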

FADD−/− Jurkat cells = experiment: Necroptosis inhibition assay, TNF-α-induced necroptosis (CellTiter-Glo 2.0); assay type: cell-based, human; settings: TNF-α 15 ng/mL; for Necroptosis inhibition assay (Rescue %) 1 μM: compound 1 μM; for Necroptosis inhibition assay (Rescue %) 10 μM: compound 10 μM
Method in brief: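 Compound is added to cells at final concentrations of 0.1, 1 and 10 μM and left 30 minutes at room temperature. Necroptosis is induced with 15 ng/mL TNF-α, culture continues 20 to 24 hours at 37° C, and ATP-based luminescence reports viability.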

MLKL [2] = target: T1, MLKL; experiment: MLKL degradation assay in HepG2 cell line (western blot); assay type: cell-based; design: endogenous in cells; host or cells: HepG2 or HaCaT; settings: cell line not given; for Degradation assay (Degradation %) 1 μM: compound 1 μM; for Degradation assay (Degradation %) 10 μM: compound 10 μM
Method in brief: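 Chemiluminescent western blot signal reports remaining MLKL protein in HepG2 cells after 20-24 h treatment with compound at a final 1 or 10 μM. Equal protein (10-15 μg, BCA) is loaded per lane.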

Row | SMILES | Kd (MLKL [1]) | Necroptosis inhibition assay (Rescue %) 1 μM (FADD−/− Jurkat cells) | Necroptosis inhibition assay (Rescue %) 10 μM (FADD−/− Jurkat cells) | Degradation assay (Degradation %) 1 μM (MLKL [2]) | Degradation assay (Degradation %) 10 μM (MLKL [2])
1 | Nc1ncc(-c2cnn(C3CCN(CCCCCCCCCCNC(=O)C4CCN(c5ccc6nnn(C7CCC(=O)NC7=O)c(=O)c6c5)CC4)CC3)c2)nc1C(=O)O[C@@H](C(=O)Nc1ccc(F)cc1)c1ccccc1 (stereo partly drawn) [TDH-177, (R)-2-((4-fluorophenyl)amino)-2-oxo-1-phenylethyl 3-amino-6-(1-(1-(10-(1-(3-(2,6-dioxopiperidin-3-yl)-4-oxo-3,4-dihydrobenzo[d][1,2,3]triazin-6-yl)piperidine-4-carboxamido)decyl)piperidin-4-yl)-1H-pyrazol-4-yl)pyrazine-2-carboxylate] | 84 nM | 41.3% | 48.7% | 36.03% | 75.8%
2 | Nc1ncc(-c2cnn(C3CCN(CC4CCN(C(=O)C5CCN(c6cccc7c6C(=O)N(C6CCC(=O)NC6=O)C7=O)CC5)CC4)CC3)c2)nc1C(=O)O[C@@H](C(=O)Nc1ccc(F)cc1)c1ccccc1 (stereo partly drawn) [TDH-146, (R)-2-((4-fluorophenyl)amino)-2-oxo-1-phenylethyl 3-amino-6-(1-(1-((1-(1-(2-(2,6-dioxopiperidin-3-yl)-1,3-dioxoisoindolin-4-yl)piperidine-4-carbonyl)piperidin-4-yl)methyl)piperidin-4-yl)-1H-pyrazol-4-yl)pyrazine-2-carboxylate] | 5.4 nM | 42.2% | 9.61% | 65.04% | 60.65%
3 | Nc1ncc(-c2cnn(C3CCN(C(=O)C4CCN(C(=O)CCc5ccc6c(c5)C(=O)N(C5CCC(=O)NC5=O)C6=O)CC4)CC3)c2)nc1C(=O)O[C@@H](C(=O)Nc1ccc(F)cc1)c1ccccc1 (stereo partly drawn) [TDH-381, (R)-2-((4-fluorophenyl)amino)-2-oxo-1-phenylethyl 3-amino-6-(1-(1-(1-(3-(2-(2,6-dioxopiperidin-3-yl)-1,3-dioxoisoindolin-5-yl)propanoyl)piperidine-4-carbonyl)piperidin-4-yl)-1H-pyrazol-4-yl)pyrazine-2-carboxylate] | 1.5 nM | 32.48% | 28.99% | 78.38% | 77.07%
4 | Nc1ncc(-c2cnn(C3CCN(CCC4CCN(c5cccc6nnn(C7CCC(=O)NC7=O)c(=O)c56)CC4)CC3)c2)nc1C(=O)OC(C(=O)Nc1ccc(F)cc1)c1ccccc1 (stereo not shown) [TDH-294, 2-((4-fluorophenyl)amino)-2-oxo-1-phenylethyl 3-amino-6-(1-(1-(2-(1-(3-(2,6-dioxopiperidin-3-yl)-4-oxo-3,4-dihydrobenzo[d][1,2,3]triazin-5-yl)piperidin-4-yl)ethyl)piperidin-4-yl)-1H-pyrazol-4-yl)pyrazine-2-carboxylate] | 4.7 nM | 67.12% | 33.24% | 25.53% | 23.63%
5 | Nc1ncc(-c2cnn(C3CCN(CC4CCN(C(=O)CCc5cccc6c5C(=O)N(C5CCC(=O)NC5=O)C6=O)CC4)CC3)c2)nc1C(=O)O[C@@H](C(=O)Nc1ccc(F)cc1)c1ccccc1 (stereo partly drawn) [TDH-336, (R)-2-((4-fluorophenyl)amino)-2-oxo-1-phenylethyl 3-amino-6-(1-(1-((1-(3-(2-(2,6-dioxopiperidin-3-yl)-1,3-dioxoisoindolin-4-yl)propanoyl)piperidin-4-yl)methyl)piperidin-4-yl)-1H-pyrazol-4-yl)pyrazine-2-carboxylate] | 1.4 nM | 39.89% | 19.67% | 73.04% | 66.71%
